Data reported in patent US8765750B2, “Piperazine compound having a PGDS inhibitory effect” (Taiho Pharmaceutical Co., Ltd., priority 2010, dated 2014).

Experiments:
human H-PGDS = human H-PGDS (Homo sapiens (Human), UniProt O60760); test: Hematopoietic prostaglandin D synthase (H-PGDS) inhibiting action; assay type: biochemical; settings: compound at 0.1 μM, relative to the control group; human H-PGDS, [14C] prostaglandin H2 10 μM; read-out: Inhibition Rate (%) 0.1 μM
Protocol: The test was carried out according to the method of Urade, Y. et al. (J. Biol. Chem., 262, 3820-3825, (1987)). More specifically, the reaction mixture (49 μL) containing 100 mM Tris-HCl (pH 8.0), 1 mM reduced glutathione, 0.1 mg/mL γ-globulin, and human H-PGDS (q.s.), and a compound (final concentration: 0.01-100 μM) was preincubated at 25° C. for 5 minutes. A DMSO solution (final concentration: 1%) was added to the solvent control group. Subsequently, 1 μL of [^14C] prostaglandin H2 (final concentration: 10 μM) was added to start the reaction. One minute after the start of the reaction, 250 μL of a reaction stop solution (diethylether/methanol/1 M citric acid (30/4/1) at a temperature of −20° C. was added to stop the reaction. After the reaction was stopped, 50 μL of the upper-layer portion (organic solvent layer) was applied to a TLC plate and developed at −20° C. for 45 minutes (developing solvent: diethylether/methanol/acetic acid (90/2/1)). After drying the TLC plate, the TLC plate was exposed to an imaging plate for 1 to 24 hours, and the radioactivity corresponding to prostaglandin D2 (PGD2) was analyzed using an image analyzer (produced by Fujifilm Corporation). […]

[1] = test system: PGD2 production in the nasal cavities of guinea pigs with antigen-induced rhinitis; test: PGD2 production inhibiting action in the nasal cavities of guinea pigs with antigen-induced rhinitis; assay type: in vivo; settings: 30 mg/kg orally 1 hour before induction of rhinitis reaction; washing 30 minutes after induction; * = significance level below 0.05 vs control group
Protocol: A physiological saline solution containing 1 mg/mL of ovalbumin was subcutaneously injected into the back of 5-week-old male Std: Hartley guinea pigs in an amount of 1 mL/body for active sensitization (initial sensitization). One week and two weeks after initial sensitization, 20 μL of a physiological saline solution containing 10 mg/mL of ovalbumin was instilled into each nasal cavity using a micropipette (sensitization by nasal administration). Three weeks after initial sensitization, 20 μL of a physiological saline solution containing 10 mg/mL of ovalbumin was instilled into each nasal cavity using a micropipette to induce a rhinitis reaction.
30 minutes after the induction of a rhinitis reaction, the nasal cavities were washed under pentobarbital sodium anesthesia. A nasal cavity washing liquid (phosphate buffered saline containing 3 mM of EDTA and 10 μM of indomethacin) was flushed using a Peristaltic Pump (Gilson, Inc.) in the direction from the trachea to the upper respiratory tract at a flow rate of 1 mL/min, and the liquid flowing out from the nasal cavities was collected for 1 minute. The collected liquid was centrifuged to separate the supernatant as the nasal cavity washing fluid. The concentration of PGD2 in the nasal cavity washing fluid was determined using an EIA kit (Prostaglandin D2-MOX EIA kit, Cayman Chemical).
The test compound (30 mg/kg) was orally administered 1 hour before induction of a rhinitis reaction. A formula to calculate the rate of decrease in PGD2 in the nasal cavity washing fluid is shown below. Rate (%) of decrease in PGD2 in the nasal cavity washing fluid={(PGD2 concentration in the control group−PGD2 concentration in the compound-administered group)÷(PGD2 concentration in the control group−PGD2 concentration in the normal group)}×100
8 or more cases were obtained from each group to determine whether expression of the PGD2 production inhibiting action occurred, and the PGD2 concentration in the nasal cavity washing fluid was compared between the control group and each compound-administered group. […] When the significance level was below 0.05, the action was considered to be present and indicated by a symbol (*) in the table. Reference Example 18, known as an H-PGDS inhibitor, was used as a positive control substance.

human H-PGDS, sequence (O60760 whole entry): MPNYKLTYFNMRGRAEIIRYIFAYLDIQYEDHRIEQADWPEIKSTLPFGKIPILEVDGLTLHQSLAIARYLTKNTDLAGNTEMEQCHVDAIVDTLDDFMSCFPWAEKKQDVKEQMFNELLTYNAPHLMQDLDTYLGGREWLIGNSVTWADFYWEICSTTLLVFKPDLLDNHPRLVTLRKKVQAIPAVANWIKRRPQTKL

Row | Compound | inhibition at 0.1 µM (human H-PGDS) [%] | Rate (%) of decrease in PGD2 in the nasal cavity washing fluid [1] [%]
1 | Cc1cc2nc(NC(=O)N3CCN(C(=O)c4cccc(F)c4)CC3)sc2cc1C [Reference Example 13, 4-(3-fluorobenzoyl)-piperazine-1-carboxylic acid-(5,6-dimethylbenzothiazol-2-yl)-amide, reference compound] | 31.6 | 3.9
2 | Cc1ccc2nc(NC(=O)N3CCN(C(=O)c4cccc(F)c4)CC3)sc2c1 [Reference Example 14, 4-(3-fluorobenzoyl)-piperazine-1-carboxylic acid-(6-methylbenzothiazol-2-yl)-amide, reference compound] | 27.9 | 26.6
3 | COc1ccc2nc(NC(=O)N3CCN(C(=O)c4cccc(F)c4)CC3)sc2c1 [Reference Example 15, 4-(3-fluorobenzoyl)-piperazine-1-carboxylic acid-(6-methoxybenzothiazol-2-yl)-amide, reference compound] | 20.9 | −27.4
